Data reported in EP4741392A1, “1H-PYRAZOLO[4,3-C]PYRIDINE COMPOUND, AND COMPOSITION THEREOF AND USE THEREOF” (Shenzhen TargetRx Co., Ltd., priority 2023, dated 2025).

Key:
Type in all cases: cell-based
[1] = test system: NIH/3T3 BTK C481S cells; assay: Phosphor-BTK(Y223) assay, adherent cells; conditions: phosphorylated BTK Y223, NIH/3T3 BTK C481S cells; read-out: NIH/3T3 BTK-C481S pBTK
Experimental: (§1) The purpose of this assay was to simply, quickly and directly detect the level of endogenous BTK phosphorylation in cells.
(§2) The steps for handling adherent cells were as follows: • 1) NIH/3T3 BTK WT cells (7.5 k/well) and NIH/3T3 BTK C481S cells (10 k/well) were plated in a 96-well plate, respectively, and cultured at 37 °C and 5% CO2 overnight. • 2) A 3-fold final concentration gradient dilution of a compound was prepared, and 50 µL of it was taken and added to 100 µL of cell culture. 0.5% DMSO was used as a positive control for cell growth. • 3) The plate was incubated at 37 °C and 5% CO2 for 0.5 h. • 4) Na3VO4 at a final concentration of 1mM was added, and the plate was incubated at 37 °C and 5% CO2 for 2 hours. • 5) During the incubation, the following reagents were prepared: • 1x added lysis buffer: 3 vol ddH2O + 1 vol 4x lysis buffer + 100x blocking reagent. • p-BTK (Y223) cryptate-antibody and p-BTK (Y223) d2-antibody working solutions: 1 volume of each cryopreserved antibody (stored at - 20 °C) was added to 19 times the volume of assay buffer (stored at 4 °C). • 6) After the incubation was completed, the medium was removed and 50 µL of 1x added lysis buffer was added. The plate was centrifuged at 500 rpm at room temperature for 30 min. • 7) The lysate was mixed well and 16 µL of it was transferred to a 384-well plate. 1 × added lysis buffer was used as a blank control. • 8) 4 µL of pre-mixed working solutions of the two antibodies (cryptate Ab:d2 Ab = 1:1) was added, and the plate was sealed. • 9) The plate was incubated at room temperature overnight. 10) The plate was read at 665nm and 620nm using Biotek cytation3.0 microplate reader, and the ratio of 665/620nm of each well was calculated.
(§3) The IC50 (half-maximal phosphorylation inhibitory concentration) of the phosphorylated BTK Y223 of the compound was obtained using the following nonlinear fitting formula: Y = Bottom + (Top−Bottom)/(1+10^(∧)((LogIC50−X)*HillSlope)) [formula] • X: Log value of the compound concentration • Y: Inhibition rate (% inhibition) • Top: Maximum response • Bottom: Baseline response • HillSlope: Slope of the curve
(§4) The formula for calculating cell phosphorylation inhibition rate (inhibition rate %) was: Inhibition rate% = 1−(eachconcentrationwell-blankwell)/(positivecontrolwell−blankwell) [formula]

[2] = test system: NIH/3T3 BTK WT cells; assay: Phosphor-BTK(Y223) assay, adherent cells; conditions: phosphorylated BTK Y223, NIH/3T3 BTK WT cells; read-out: NIH/3T3 BTK-WT pBTK
Experimental: as §1, §2, §3, §4

[3] = test system: Ramos cells with BTK WT; assay: Phosphor-BTK(Y223) assay, suspended cells; conditions: phosphorylated BTK Y223, Ramos cells with BTK WT
Experimental: as §1
The steps for handling suspended cells were as follows: • 1) Ramos cells with BTK WT (2.5 k/well), BTK C481S (2.5 k/well), or BTK T474I (2.5 k/well) were plated in a 96-well plate, respectively. A compound of different concentration gradients was added using Tecan D300e, and the plate was incubated at 37 °C and 5% CO2 for 2 hours. • 2) 8.33 µL of 20 mM Na3VO4 was added to bring the final concentration to 5 mM, and the plate was incubated at 37 °C and 5% CO2 for 3 h. • 3) During the incubation, the following reagents were prepared: • 4x added lysis buffer: 24 vol 4x lysis buffer + 1 vol 25x blocking reagent. • p-BTK (Y223) cryptate-antibody and p-BTK (Y223) d2-antibody working solutions: 1 volume of each cryopreserved antibody (stored at - 20 °C) was added to 38 times the volume of assay buffer (stored at 4 °C), and mixed well. • 4) After the incubation was completed, 11.1 µL of 4x added lysis buffer was directly added. The plate was shaken at 800 rpm at room temperature for 30 min. • 5) The lysate was mixed well and 16 µL of it was transferred to a 384-well plate. 1 × added lysis buffer was used as a blank control. • 6) 4 µL of pre-mixed working solutions of the two antibodies (cryptate Ab:d2 Ab = 1:1) was added, and the plate was sealed. • 7) The plate was incubated at room temperature overnight. • 8) The plate was read at 665nm and 620nm using Biotek cytation3.0 microplate reader, and the ratio of 665/620nm of each well was calculated. Data analysis: IC50 was calculated using GraphPad Prism 7.0 software.
as §3, §4

Measured: IC50

N-(4-(3-amino-7-(1,7-naphthyridin-2-yl)-1H-pyrazolo[4,3-c]pyridin-4-yl)benzyl)-5-fluoro-2-methoxybenzamide [Example 49]
> 50 nM: all assays above
